The text below walks through data of patent US20050176755A1, “Aza-bridged-bicyclic amino acid derivatives as alpha4 integrin antagonists” (priority 2003, published 2005).

Read-outs that look alike come from different tables or passages of the source.

In assay [1] the target is T1, α4β1 (Homo sapiens, UniProt P05556+P13612). Put plainly: Ramos Cell Adhesion Assay (α4β1 Mediated Adhesion/VCAM-1). On the set-up: Ramos Cell Adhesion Assay (α4β1 Mediated Adhesion/VCAM-1); endogenous in cells; host or cells: Ramos cells. In kind it is cell-based. As to the method:
(§1) Ramos Cell Adhesion Assay (α4β1 Mediated Adhesion/VCAM-1) Immulon 96 well plates (Dynex) were coated with 100 μL recombinant hVCAM-1 at 4.0 μg/mL in 0.05 M NaCO3 buffer pH 9.0 overnight at 4° C. (R&D Systems). Plates were washed 3 times in PBS with 1% BSA and blocked for 1 h @ room temperature in this buffer. PBS was removed and compounds to be tested (50 μL) were added at 2× concentration. Ramos cells, (50 μL at 2×10^6/mL) labeled with 5 μM Calcein AM (Molecular Probes) for 1 h at 37° C., were added to each well and allowed to adhere for 1 h at room temperature. Plates were washed 3× in PBS+1% BSA and cells were lysed for 15 minutes in 100 μL of 1 M Tris pH 8.0 with 1% SDS. The plate was read at 485 nm excitation and 530 nm emission.

Another assay deals with T2, human α4β7 (Homo sapiens, UniProt P13612+P26010).
T2 construct: expressed in transfected cells
T2 sequence (P13612 34-1032): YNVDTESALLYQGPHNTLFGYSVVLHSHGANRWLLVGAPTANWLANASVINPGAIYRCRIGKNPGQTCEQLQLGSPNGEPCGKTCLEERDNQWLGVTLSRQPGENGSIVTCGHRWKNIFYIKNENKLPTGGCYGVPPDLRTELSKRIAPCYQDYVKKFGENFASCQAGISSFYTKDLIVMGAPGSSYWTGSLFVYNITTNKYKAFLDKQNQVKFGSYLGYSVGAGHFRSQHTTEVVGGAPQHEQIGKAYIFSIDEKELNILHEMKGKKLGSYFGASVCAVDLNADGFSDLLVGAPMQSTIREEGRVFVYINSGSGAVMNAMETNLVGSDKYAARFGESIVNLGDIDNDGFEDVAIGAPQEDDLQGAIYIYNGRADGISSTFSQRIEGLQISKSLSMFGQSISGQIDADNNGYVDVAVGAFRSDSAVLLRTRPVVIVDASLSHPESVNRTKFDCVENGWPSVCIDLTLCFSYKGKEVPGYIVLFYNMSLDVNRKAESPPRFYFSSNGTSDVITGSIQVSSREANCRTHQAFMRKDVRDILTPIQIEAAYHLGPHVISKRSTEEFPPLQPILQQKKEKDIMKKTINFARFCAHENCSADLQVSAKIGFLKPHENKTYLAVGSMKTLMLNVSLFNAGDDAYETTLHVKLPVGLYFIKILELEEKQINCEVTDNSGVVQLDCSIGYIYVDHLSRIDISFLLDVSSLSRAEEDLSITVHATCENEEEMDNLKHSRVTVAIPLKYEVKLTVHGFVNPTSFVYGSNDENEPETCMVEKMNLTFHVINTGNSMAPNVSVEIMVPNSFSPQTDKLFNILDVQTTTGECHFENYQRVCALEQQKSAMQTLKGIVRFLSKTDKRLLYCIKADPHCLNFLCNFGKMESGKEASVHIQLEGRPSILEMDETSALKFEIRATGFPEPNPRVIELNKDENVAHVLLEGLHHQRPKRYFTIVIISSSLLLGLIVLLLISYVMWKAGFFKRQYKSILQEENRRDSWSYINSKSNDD
T2 sequence (P26010 20-798): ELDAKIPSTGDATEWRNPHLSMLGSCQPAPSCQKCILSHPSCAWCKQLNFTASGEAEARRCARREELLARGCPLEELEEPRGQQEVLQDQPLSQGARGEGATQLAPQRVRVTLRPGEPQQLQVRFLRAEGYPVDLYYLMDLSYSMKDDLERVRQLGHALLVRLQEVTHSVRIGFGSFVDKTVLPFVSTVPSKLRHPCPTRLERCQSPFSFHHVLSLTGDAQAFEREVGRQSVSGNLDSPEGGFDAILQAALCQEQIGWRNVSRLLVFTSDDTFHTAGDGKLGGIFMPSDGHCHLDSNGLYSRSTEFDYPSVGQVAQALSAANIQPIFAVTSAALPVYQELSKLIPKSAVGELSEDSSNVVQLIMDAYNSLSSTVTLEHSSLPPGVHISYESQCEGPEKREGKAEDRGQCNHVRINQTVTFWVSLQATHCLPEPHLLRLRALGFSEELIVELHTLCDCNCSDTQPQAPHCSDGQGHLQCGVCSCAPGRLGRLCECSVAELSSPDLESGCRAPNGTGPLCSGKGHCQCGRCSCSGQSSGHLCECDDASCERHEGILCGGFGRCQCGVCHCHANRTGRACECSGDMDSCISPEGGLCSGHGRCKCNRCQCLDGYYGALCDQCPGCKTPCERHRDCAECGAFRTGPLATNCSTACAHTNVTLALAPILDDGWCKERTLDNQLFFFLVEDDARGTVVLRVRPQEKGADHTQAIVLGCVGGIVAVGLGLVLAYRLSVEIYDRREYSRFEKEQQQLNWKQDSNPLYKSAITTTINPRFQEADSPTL
Put plainly: α4β7-K562 Cell Adhesion Assay (α4β7 Mediated Adhesion/VCAM-1). In kind it is cell-based. As to the method:
as §1, with “α4β7-K562” for “Ramos”, “(α4β7” for “(α4β1”, “@room” for “@ room”, “A stable cell line of K562 cells expressing human α4β7,” for “Ramos cells,”

Assay [2] concerns heterotopic heart allograft. Particulars: hyperlipidemic rabbit; cited from earlier work.
Assay [3] has as its system oxazolone-induced contact hypersensitivity. Particulars: mouse, 6 mg/kg, sc; cited from earlier work.
The target of assay [4] is T1, α4β1. Particulars: background, literature; cited from earlier work.
[5] abbreviates: Ramos cells, adhesion to recombinant hVCAM-1, read-out: α4β1 IC50.
Setting [6] is: K562 cells expressing human α4β7, adhesion to recombinant hVCAM-1, read-out: α4β7 IC50.

T1 sequence (P05556 21-798, one chain of several): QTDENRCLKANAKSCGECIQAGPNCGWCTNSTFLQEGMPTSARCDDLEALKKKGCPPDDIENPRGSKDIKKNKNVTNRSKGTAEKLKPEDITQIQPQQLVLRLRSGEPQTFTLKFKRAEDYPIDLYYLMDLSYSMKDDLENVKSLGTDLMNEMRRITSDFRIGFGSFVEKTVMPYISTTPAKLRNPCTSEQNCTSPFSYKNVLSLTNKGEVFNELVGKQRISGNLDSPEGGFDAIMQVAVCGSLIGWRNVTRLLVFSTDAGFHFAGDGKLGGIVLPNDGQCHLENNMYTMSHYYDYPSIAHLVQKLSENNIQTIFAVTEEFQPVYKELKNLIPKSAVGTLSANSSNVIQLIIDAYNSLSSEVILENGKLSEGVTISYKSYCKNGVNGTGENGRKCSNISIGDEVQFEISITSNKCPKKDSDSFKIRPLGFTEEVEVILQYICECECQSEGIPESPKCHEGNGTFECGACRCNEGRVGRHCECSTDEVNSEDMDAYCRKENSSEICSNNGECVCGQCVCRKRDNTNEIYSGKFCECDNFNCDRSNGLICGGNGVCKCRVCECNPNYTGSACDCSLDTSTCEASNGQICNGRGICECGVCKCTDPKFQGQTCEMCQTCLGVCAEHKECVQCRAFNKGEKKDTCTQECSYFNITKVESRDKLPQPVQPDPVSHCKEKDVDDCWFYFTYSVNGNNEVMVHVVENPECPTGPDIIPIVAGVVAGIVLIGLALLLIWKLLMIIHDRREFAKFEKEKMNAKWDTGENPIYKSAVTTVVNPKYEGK

In the case of `O=C(Nc1ccc(CC(NC(=O)C2C3CCC(CC3)N2C(=O)CSc2ccccn2)C(=O)O)cc1)c1c(Cl)cncc1Cl` (centres unmarked) [Cpd 1], the figures for the IC50 on α4β1 [1] (setting [5]) and on human α4β7 (setting [6]) were 9 nM and 10 nM, respectively.

With `O=C(Nc1ccc(CC(NC(=O)C2C3CCC(CC3)N2C(=O)CSc2ccc(F)cc2)C(=O)O)cc1)c1c(Cl)cncc1Cl` (centres unmarked) [Cpd 2], the IC50 was determined as 6 nM on α4β1 [1] (setting [5]) and 20 nM at human α4β7 (setting [6]).

Turning to `O=C(Nc1ccc(CC(NC(=O)C2C3CCC(CC3)N2C(=O)CSc2ccncc2)C(=O)O)cc1)c1c(Cl)cncc1Cl` (centres unmarked) [Cpd 3], the IC50 on α4β1 [1] (setting [5]) and on human α4β7 (setting [6]) was 6 nM in each case.

With `CS(=O)(=O)CC(=O)N1C2CCC(CC2)C1C(=O)NC(Cc1ccc(NC(=O)c2c(Cl)cncc2Cl)cc1)C(=O)O` (centres unmarked) [Cpd 5], the IC50 at α4β1 [1] (setting [5]) was 17 nM; at human α4β7 (setting [6]), 32 nM.

Take `O=C(Nc1ccc(CC(NC(=O)C2C3CCC(CC3)N2C(=O)CS(=O)(=O)c2ccccc2)C(=O)O)cc1)c1c(Cl)cncc1Cl` (centres unmarked) [Cpd 6]: the IC50 was 15 nM at α4β1 [1] (setting [5]) and 27 nM at human α4β7 (setting [6]).

For the molecule `O=C(Nc1ccc(CC(NC(=O)C2C3CCC(CC3)N2C(=O)CCO)C(=O)O)cc1)c1c(Cl)cncc1Cl` (centres unmarked) [Cpd 8], the concentration for half-maximal inhibition (IC50) on α4β1 [1] (setting [5]) was found to be 4 nM; on human α4β7 (setting [6]) it was 6 nM.

Consider `O=C(Nc1ccc(CC(NC(=O)C2C3CCC(CC3)N2C(=O)CCO)C(=O)O)cc1)c1c(Cl)cccc1Cl` (centres unmarked) [Cpd 9], for which the IC50 at α4β1 [1] (setting [5]) turned out to be 135 nM; at human α4β7 (setting [6]), 67 nM.

As for `O=C(O)C(Cc1ccc(OC(=O)N2CCOCC2)cc1)NC(=O)C1C2CCC(CC2)N1C(=O)CCO` (centres unmarked) [Cpd 10], the IC50 at α4β1 [1] (setting [5]) is more than 1000 nM; on human α4β7 (setting [6]) it was 896 nM.

Turning to `CC(C)(O)CCCC(=O)N1C2CCC(CC2)C1C(=O)NC(Cc1ccc(NC(=O)c2c(Cl)cncc2Cl)cc1)C(=O)O` (centres unmarked) [Cpd 11], the IC50 at α4β1 [1] (setting [5]) turned out to be 14 nM; at human α4β7 (setting [6]), 47 nM.

For `COCCC(=O)N1C2CCC(CC2)C1C(=O)NC(Cc1ccc(NC(=O)c2c(Cl)cncc2Cl)cc1)C(=O)O` (centres unmarked) [Cpd 12], the half-inhibitory concentration (IC50) on α4β1 [1] (setting [5]) stood at 8 nM; on human α4β7 (setting [6]) it was 117 nM.

Turning to `COCCC(=O)Nc1ccc(CC(NC(=O)C2C3CCC(CC3)N2C(=O)CCOC)C(=O)O)cc1` (centres unmarked) [Cpd 13], the half-inhibitory concentration (IC50) at α4β1 [1] (setting [5]) is more than 1000 nM; at human α4β7 (setting [6]) it was 2370 nM.

For the molecule `COCCC(=O)N1C2CCC(CC2)C1C(=O)NC(Cc1ccc(OC(=O)N(C)C)cc1)C(=O)O` (centres unmarked) [Cpd 14], the IC50 against α4β1 [1] is 1270 nM; on human α4β7 it was 304 nM.

Turning to `NCCC(=O)N1C2CCC(CC2)C1C(=O)NC(Cc1ccc(NC(=O)c2c(Cl)cncc2Cl)cc1)C(=O)O` (centres unmarked) [Cpd 15], the IC50 amounted to 29 nM at α4β1 [1] (setting [5]) and 60 nM on human α4β7 (setting [6]).

Consider `CN(C)CCC(=O)N1C2CCC(CC2)C1C(=O)NC(Cc1ccc(NC(=O)c2c(Cl)cncc2Cl)cc1)C(=O)O` (centres unmarked) [Cpd 16], for which the concentration for half-maximal inhibition (IC50) amounted to 23 nM on α4β1 [1] (setting [5]) and 177 nM on human α4β7 (setting [6]).

As for `O=C(Nc1ccc(CC(NC(=O)C2C3CCC(CC3)N2C(=O)CCc2ccc3c(c2)OCO3)C(=O)O)cc1)c1c(Cl)cccc1Cl` (centres unmarked) [Cpd 22], the 50% inhibitory concentration (IC50) at α4β1 [1] (setting [5]) turned out to be 45 nM; on human α4β7 (setting [6]), 35 nM.

Consider `O=C(O)C(Cc1ccc(OC(=O)N2CCOCC2)cc1)NC(=O)C1C2CCC(CC2)N1C(=O)CCc1ccc2c(c1)OCO2` (centres unmarked) [Cpd 23], for which the IC50 at α4β1 [1] (setting [5]) came out at 217 nM; at human α4β7 (setting [6]), 277 nM.

On to Phenylacetyl-Leu-Asp-Phe-D-Pro-NH2, for which the “efficacy in heart allograft model” value in assay [2] was “effective”. The “efficacy in oxazolone-induced contact hypersensitivity” value in assay [3] is given as “efficacy similar to the α4 antibody PS/2”. In addition, on α4β1 [4], the half-maximal inhibitory concentration (IC50) is 2000 nM.

The term IC50 denotes the concentration at which inhibition is half-maximal.
